The text below walks through data of ChEMBL document CHEMBL5465560, “Selectivity Literature for EUbOPEN Chemogenomic Library” (2024).

In assay [1] the target is T1, Serine/threonine-protein kinase 17B (Homo sapiens) (UniProt O94768).
T1 sequence (whole entry): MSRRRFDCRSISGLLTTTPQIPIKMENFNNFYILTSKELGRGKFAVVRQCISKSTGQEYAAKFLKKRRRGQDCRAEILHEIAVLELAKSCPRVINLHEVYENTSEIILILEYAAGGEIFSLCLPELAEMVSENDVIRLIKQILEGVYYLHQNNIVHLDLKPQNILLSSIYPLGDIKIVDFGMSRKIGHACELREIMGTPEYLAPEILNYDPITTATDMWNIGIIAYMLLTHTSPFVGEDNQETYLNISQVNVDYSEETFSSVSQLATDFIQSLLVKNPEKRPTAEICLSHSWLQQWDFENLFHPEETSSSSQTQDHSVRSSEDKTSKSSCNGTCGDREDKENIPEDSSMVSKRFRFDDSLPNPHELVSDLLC
Nature of the assay: Selectivity interaction (Ambit KINOMEscan and KiNATiv profiling in Jurkat cells) EUB0000090b STK17B. It is filed as cell-based. The note with it: at 1 µM.

The target of assay [2] is Tyrosine-protein kinase HCK (Homo sapiens) (UniProt P08631). Nature of the assay: Selectivity interaction (KinomeScan (DiscoverX)) EUB0000092b HCK. The note with it: at 10 µM.
For assay [3], the target named is Serine/threonine-protein kinase MRCK beta (Homo sapiens) (UniProt Q9Y5S2). The experiment in a line: Selectivity interaction (KinomeScan (DiscoverX)) EUB0000655a CDC42BPB. To be noted: at 10 µM.
Assay [4] concerns the target RAF proto-oncogene serine/threonine-protein kinase (Homo sapiens) (UniProt P04049). To be noted: at 10 µM.
Assay [5] addresses Phosphatidylinositol 4-kinase type 2-alpha (Homo sapiens) (UniProt Q9BTU6). The experiment in a line: Selectivity interaction (Adapta Assay) EUB0001632a PI4K2A. The note with it: at 10 µM.
Assay [6] addresses Casein kinase II subunit alpha (Homo sapiens, UniProt P68400). The experiment in a line: Selectivity interaction (Kinase panel (Invitrogen)) EUB0000639a CSNK2A1. To be noted: at 200 nM.
The nature of assay [7]: Selectivity interaction (ActivX KiNativ screen (kinase selectivity in THP-1 cell lysates)) EUB0000639a STLK6. The note with it: Selectivity number of off-targets 5; Selectivity number of targets 283; Source Knowledge https://pubmed.ncbi.nlm.nih.gov/28498658/; at 5 µM.
Assay [8] concerns the target Bromodomain adjacent to zinc finger domain protein 2A (Homo sapiens, UniProt Q9UIF9).
Assay [9] concerns the target T2, Tyrosine-protein kinase JAK3 (Homo sapiens) (UniProt P52333).
T2 sequence (whole entry): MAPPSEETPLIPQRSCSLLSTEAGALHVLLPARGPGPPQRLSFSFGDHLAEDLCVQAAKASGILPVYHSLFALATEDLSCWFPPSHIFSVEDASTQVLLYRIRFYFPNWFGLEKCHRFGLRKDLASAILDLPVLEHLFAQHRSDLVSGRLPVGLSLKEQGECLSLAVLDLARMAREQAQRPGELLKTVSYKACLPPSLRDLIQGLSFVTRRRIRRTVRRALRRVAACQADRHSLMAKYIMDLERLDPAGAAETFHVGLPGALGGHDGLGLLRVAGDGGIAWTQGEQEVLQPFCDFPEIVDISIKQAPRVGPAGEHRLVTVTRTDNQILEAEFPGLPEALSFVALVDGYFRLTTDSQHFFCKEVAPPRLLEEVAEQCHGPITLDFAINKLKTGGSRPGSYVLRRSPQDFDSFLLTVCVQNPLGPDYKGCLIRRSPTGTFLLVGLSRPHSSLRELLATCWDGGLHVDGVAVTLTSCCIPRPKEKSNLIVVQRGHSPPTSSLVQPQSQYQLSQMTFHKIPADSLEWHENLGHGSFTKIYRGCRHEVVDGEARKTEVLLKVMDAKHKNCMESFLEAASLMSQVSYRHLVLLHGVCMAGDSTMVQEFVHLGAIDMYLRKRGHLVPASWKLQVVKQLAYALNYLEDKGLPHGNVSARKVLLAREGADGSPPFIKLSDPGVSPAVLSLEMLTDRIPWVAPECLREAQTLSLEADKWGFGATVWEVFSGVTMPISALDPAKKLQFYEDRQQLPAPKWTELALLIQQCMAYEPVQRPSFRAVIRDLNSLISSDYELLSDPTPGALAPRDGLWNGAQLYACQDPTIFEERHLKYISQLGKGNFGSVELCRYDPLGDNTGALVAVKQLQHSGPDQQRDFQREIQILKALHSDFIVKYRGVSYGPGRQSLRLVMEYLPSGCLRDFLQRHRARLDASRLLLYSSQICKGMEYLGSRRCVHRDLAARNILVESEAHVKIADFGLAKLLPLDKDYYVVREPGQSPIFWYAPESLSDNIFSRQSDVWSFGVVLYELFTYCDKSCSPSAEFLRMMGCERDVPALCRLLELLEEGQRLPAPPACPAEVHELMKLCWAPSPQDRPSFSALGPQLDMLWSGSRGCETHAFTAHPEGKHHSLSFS
The experiment in a line: Selectivity interaction (Kinase panel (literature)) EUB0001199aCl JAK3. The note with it: at 1 µM.

The target in assay [10] is T3, Mitogen-activated protein kinase kinase kinase kinase 2 (Homo sapiens) (UniProt Q12851).
T3 sequence (whole entry): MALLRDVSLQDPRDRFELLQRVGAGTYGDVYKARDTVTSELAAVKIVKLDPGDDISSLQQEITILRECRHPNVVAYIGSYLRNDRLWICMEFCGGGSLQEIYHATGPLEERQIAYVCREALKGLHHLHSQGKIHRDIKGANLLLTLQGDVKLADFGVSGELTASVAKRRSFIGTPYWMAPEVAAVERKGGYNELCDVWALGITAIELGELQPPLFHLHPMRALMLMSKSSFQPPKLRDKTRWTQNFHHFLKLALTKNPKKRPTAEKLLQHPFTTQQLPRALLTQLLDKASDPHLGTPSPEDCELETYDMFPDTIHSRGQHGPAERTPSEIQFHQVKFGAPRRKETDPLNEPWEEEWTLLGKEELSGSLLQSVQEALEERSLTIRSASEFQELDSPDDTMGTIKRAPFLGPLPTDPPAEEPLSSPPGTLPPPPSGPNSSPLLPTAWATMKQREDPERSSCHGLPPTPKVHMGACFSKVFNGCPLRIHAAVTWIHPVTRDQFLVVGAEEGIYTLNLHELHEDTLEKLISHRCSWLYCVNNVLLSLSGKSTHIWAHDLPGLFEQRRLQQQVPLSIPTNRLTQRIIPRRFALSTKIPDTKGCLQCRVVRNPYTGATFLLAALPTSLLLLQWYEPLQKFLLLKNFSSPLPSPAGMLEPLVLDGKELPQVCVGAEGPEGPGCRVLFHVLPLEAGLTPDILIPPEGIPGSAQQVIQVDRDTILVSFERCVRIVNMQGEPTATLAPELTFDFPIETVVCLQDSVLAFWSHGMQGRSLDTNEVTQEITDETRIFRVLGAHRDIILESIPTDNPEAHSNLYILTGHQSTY
Nature of the assay: Selectivity interaction (Kinase panel (KiNativ target engagement assay in Jurkat cells)) EUB0001635a MAP4K2. It counts as cell-based. The note with it: Selectivity number of off-targets 0.0, Selectivity number of targets 233.0, Source Knowledge https://www.sciencedirect.com/science/article/pii/S2451945619300674?via%3Dihub, at 1 µM.

Chain of Casein kinase II subunit alpha (P68400 whole entry, looked up): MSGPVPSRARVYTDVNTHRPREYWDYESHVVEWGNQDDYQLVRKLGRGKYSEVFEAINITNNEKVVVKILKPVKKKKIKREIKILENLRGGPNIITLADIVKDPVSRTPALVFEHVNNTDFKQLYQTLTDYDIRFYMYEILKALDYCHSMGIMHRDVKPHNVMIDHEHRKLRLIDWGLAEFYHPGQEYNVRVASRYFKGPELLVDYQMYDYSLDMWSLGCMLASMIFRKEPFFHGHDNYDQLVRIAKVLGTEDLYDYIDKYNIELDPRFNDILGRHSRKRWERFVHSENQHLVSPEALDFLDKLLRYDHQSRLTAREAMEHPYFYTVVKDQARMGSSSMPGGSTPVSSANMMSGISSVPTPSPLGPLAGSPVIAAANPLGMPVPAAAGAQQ
Chain of Tyrosine-protein kinase HCK (Homo sapiens) (P08631 2-526 limits assumed): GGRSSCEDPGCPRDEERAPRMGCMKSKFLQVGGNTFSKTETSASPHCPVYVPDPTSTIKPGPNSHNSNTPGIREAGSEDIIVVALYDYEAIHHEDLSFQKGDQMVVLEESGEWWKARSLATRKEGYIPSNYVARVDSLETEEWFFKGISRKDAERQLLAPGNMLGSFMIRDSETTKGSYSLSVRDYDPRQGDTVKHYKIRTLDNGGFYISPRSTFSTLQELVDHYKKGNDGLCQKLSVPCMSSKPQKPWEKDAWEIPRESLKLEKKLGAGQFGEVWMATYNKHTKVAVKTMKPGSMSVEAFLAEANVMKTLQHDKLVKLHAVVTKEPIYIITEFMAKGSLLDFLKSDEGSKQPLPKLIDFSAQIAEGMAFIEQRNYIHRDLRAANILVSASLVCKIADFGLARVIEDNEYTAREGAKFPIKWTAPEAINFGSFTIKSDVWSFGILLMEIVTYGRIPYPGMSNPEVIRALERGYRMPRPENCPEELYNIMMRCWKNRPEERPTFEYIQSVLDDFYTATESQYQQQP
Chain of RAF proto-oncogene serine/threonine-protein kinase (Homo sapiens) (P04049 whole entry): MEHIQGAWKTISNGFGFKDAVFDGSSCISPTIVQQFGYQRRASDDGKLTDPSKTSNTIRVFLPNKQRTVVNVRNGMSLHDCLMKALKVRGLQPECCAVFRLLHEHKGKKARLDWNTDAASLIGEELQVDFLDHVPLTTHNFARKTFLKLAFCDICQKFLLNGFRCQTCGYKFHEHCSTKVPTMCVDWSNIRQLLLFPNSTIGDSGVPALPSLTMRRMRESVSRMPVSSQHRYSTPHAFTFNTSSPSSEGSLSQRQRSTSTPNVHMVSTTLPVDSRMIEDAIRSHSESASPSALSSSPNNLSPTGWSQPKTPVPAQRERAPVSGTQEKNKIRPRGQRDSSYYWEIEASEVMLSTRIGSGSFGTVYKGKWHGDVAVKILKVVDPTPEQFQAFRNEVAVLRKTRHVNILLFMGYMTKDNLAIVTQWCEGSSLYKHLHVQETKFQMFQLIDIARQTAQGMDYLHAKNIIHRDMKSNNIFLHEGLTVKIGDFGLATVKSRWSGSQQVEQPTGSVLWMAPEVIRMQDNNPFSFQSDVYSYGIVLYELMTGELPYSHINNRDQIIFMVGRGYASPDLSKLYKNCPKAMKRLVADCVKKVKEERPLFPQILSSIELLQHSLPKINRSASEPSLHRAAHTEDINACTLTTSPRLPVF
Chain of Bromodomain adjacent to zinc finger domain protein 2A (Q9UIF9 whole entry, the tested form may be a part): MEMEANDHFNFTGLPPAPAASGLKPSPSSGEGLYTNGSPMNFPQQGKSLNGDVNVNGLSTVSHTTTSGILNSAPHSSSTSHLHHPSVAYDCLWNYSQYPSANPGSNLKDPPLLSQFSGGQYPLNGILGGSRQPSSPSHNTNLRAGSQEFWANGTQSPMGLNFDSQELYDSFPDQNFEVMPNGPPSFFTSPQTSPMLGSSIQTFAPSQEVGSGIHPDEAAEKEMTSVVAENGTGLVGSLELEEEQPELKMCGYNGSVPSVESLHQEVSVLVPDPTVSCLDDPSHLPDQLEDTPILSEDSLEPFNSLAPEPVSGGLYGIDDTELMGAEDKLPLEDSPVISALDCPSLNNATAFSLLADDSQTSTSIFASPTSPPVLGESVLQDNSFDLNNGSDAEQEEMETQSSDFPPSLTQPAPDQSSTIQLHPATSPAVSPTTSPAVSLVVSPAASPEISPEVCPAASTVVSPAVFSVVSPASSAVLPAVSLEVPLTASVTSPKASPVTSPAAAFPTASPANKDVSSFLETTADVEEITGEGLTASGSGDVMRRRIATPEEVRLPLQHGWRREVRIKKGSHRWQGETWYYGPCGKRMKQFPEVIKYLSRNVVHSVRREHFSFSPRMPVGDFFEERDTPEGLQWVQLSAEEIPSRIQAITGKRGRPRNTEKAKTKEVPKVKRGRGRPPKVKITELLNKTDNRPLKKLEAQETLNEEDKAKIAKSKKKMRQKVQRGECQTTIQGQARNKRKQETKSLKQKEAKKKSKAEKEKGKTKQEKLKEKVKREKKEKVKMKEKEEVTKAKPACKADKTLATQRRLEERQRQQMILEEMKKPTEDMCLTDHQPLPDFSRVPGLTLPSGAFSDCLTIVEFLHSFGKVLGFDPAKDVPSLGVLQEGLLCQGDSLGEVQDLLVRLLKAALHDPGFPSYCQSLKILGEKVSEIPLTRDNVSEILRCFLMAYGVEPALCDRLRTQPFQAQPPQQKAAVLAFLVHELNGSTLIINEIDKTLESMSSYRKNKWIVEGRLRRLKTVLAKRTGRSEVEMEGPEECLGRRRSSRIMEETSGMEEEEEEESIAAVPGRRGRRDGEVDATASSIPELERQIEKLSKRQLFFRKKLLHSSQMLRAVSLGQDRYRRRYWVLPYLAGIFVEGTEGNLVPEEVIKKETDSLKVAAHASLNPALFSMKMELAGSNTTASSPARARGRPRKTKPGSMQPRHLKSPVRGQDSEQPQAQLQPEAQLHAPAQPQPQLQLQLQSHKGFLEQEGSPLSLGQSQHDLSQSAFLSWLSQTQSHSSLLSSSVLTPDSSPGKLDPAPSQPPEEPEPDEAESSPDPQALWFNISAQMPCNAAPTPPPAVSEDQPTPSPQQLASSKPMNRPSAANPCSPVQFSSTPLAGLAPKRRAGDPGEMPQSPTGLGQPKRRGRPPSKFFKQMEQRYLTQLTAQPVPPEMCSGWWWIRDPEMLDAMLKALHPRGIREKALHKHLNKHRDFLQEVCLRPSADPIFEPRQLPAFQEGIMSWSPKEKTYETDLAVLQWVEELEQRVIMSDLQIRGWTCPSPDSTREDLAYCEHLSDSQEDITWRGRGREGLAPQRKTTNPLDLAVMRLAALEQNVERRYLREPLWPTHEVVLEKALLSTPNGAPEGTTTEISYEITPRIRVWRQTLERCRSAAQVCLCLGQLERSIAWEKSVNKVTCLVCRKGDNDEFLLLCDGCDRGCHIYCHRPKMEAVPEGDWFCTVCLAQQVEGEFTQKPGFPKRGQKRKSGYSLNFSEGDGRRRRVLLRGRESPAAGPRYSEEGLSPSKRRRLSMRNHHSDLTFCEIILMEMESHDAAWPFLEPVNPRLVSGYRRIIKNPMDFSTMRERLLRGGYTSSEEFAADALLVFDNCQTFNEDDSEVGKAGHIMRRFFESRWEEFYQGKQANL
Chain of Phosphatidylinositol 4-kinase type 2-alpha (Homo sapiens) (Q9BTU6 whole entry): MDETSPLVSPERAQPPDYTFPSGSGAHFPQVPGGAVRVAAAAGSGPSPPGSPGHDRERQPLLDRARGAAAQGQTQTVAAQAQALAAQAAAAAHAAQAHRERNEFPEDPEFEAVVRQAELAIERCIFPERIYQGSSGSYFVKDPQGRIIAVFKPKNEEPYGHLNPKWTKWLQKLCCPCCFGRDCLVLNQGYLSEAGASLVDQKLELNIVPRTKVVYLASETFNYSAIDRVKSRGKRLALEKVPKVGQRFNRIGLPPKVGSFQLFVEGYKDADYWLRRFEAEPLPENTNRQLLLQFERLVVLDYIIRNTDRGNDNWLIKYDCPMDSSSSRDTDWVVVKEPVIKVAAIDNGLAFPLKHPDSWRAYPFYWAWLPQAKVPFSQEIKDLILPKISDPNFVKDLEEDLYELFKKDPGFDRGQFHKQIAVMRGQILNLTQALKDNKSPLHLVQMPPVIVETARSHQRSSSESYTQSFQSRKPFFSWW

Compound `CN(C)C/C=C/C(=O)Nc1ccc(C(=O)N2CCCC(Nc3ncc(Cl)c(-c4c[nH]c5ccccc45)n3)C2)cc1` (stereo not given) had a % of control in [1] of 81%. Consider `CCC(=O)N1CCN(c2ccc(-n3c(=O)ccc4cnc5ccc(-c6cnc7ccccc7c6)cc5c43)cc2C(F)(F)F)CC1`, for which the % of control in [2] was determined as 77%. Consider `CN(C)CCOc1ccc(-c2nc(-c3ccncc3)c(-c3ccc4c(c3)CC/C4=N\O)[nH]2)cc1`, for which the % of control in [3] worked out at 89%; in assay [4], 0%.

As for `Cn1cc(-n2cnc3c(NCc4nc5cc(Cl)c(Cl)cc5[nH]4)nc(N4CCOCC4)nc32)cn1`, the % of inhibition in assay [5] is 1.38%. Take `CC[C@@H]1[C@H](F)C(=O)N[C@@H]1COc1nccc2cc(C(N)=O)c(OC)cc12` [ZIMLOVISERTIB]: the results for the % of inhibition in [6] and in [7] were -1.15% and -4.2%, respectively.

In [8], `CN(C)CCCOc1ccc(-c2cc(NCCCn3cccn3)nc(S(C)(=O)=O)n2)cc1` came in with a dTM of less than 2 K.

In the case of `CN1Cc2nccc(-c3cn(C)nc3-c3ccc(F)cc3)c2C1=O`, the % of inhibition in [9] is -2%. In the case of `C=CC(=O)Nc1ccc(C(=O)Nc2[nH]nc3c2CN(C(=O)N[C@H](CN(C)C)c2ccccc2)C3(C)C)cc1`, the % of engagement in assay [10] was -6.1%.
